Test results published in patent US20240368668A1, “SUBSTRATES AND BIOMARKERS OF ADAMTS7” (The Broad Institute, Inc., priority 2021, published 2024).
Square brackets hold non-standard residues; d marks the D form. Ends that are not written are not given here.

Tested on: mouse ADAMTS7
Assay: TMT10 TAILS N-terminomics, HUVEC experiment (process replicates, trypsin/AspN digest)
Type: cell-based, human
Details: for logFC.mWT.over.mEQ: HUVEC TAILS HC, log fold change of N-terminal peptide, Ad-mADAMTS7 WT over EQ
Outline: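 Full-length mouse ADAMTS7 (WT or E373Q mutant, C-terminal 3xFLAG) or luciferase was transduced via adenovirus, 50 MOI, into HCA-SMC (SMC1, SMC2) or HUVEC. SMC1: pooled media, technical triplicates 400 ug; SMC2: process triplicates 300 ug; HUVEC: process triplicates 200 ug, bFGF2 10 ng/ml.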

| Substance | logFC.mWT.over.mEQ | HUVEC logFC.mWT.over.mEQ (HUVEC experiment, log fold change, mouse ADAMTS7 WT over EQ) |
| --- | --- | --- |
| ECM1_108 (QEAVPLQK; listed as Homo sapiens) | 2.12 |  |
| EFEMP1_125_ (VAGPEMQTGR; listed as Homo sapiens) | 2.45 |  |
| ERAP2_718 (ISENLKR; listed as Homo sapiens) | 4.41 |  |
| EWSR1_87 (YSQPVQGYGTGAY; listed as Homo sapiens) | 1.15 |  |
| FN1_34 ([code q]QMVQPQSPVAVSQSKPGCY; not fully specified (residue 3); listed as Homo sapiens) | 1.43 |  |
| FN1_35 ([code q]MVQPQSPVAVSQSKPGCY; not fully specified (residue 2); listed as Homo sapiens) | 2.58 |  |
| FN1_293 (VYQPQPHPQPPPYGHCVT; listed as Homo sapiens) | 1.24 |  |
| FN1_607 (SSSGPVEVFIT; listed as Homo sapiens) | 2.71 | 2.04 |
| FN1_1144 (TPGVEYVYTIQVLR; listed as Homo sapiens) | 1.62 |  |
| FN1_1780 (LQGLRPGSEYTVSVVALH; listed as Homo sapiens) | 2.27 |  |
| FN1_1805 (LIGTQSTAIPAPT; listed as Homo sapiens) | 1.42 |  |
| FN1_2113 (FVTHPGY; listed as Homo sapiens) | 1.67 |  |
| FSTL1_290 (LQKHQETA; listed as Homo sapiens) | 2.57 |  |
| LOX_125 (FQAGYSTSR; listed as Homo sapiens) | 3.58 |  |
